Assay results published in PMC4562813 (Bioorganic & medicinal chemistry, 2015).

Key:
[1] = target: human 20S proteasome (hs20S), trypsin-like activity mediated by the β2 subunit (Homo sapiens, UniProt P49720+Q99436); format: biochemical; conditions: Boc-LRR-AMC, Table 2
[2] = test system: MOLT-4 leukemia cell line; test: NCI dose-dependent growth inhibition, MOLT-4; format: cell-based; conditions: 48-h exposure, optical density, data provided by NCI
[3] = test system: HL-60 leukemia cell line; test: NCI dose-dependent growth inhibition, HL-60; format: cell-based; conditions: 48-h exposure, optical density, data provided by NCI
[4] = test system: SR leukemia cell line; test: NCI dose-dependent growth inhibition, SR; format: cell-based; conditions: 48-h exposure, optical density, data provided by NCI
[5] = test system: K-562 leukemia cell line; test: NCI dose-dependent growth inhibition, K-562; format: cell-based; conditions: 48-h exposure, optical density, data provided by NCI
[6] = test system: RPMI-8226 leukemia cell line; test: NCI dose-dependent growth inhibition, RPMI-8226; format: cell-based; conditions: 48-h exposure, optical density, data provided by NCI

## syringolin B methyl ester [Compound 1]
[1]
  Trypsin-Like Activity kin/Ki: 326 M⁻¹ s⁻¹
[2]
  GI50: 4.73 µM
[3]
  GI50: 5.41 µM
[4]
  GI50: 5.13 µM
[5]
  GI50: 6.12 µM
[6]
  GI50: 3.97 µM
